Among the test systems are M19-MEL melanoma; RXF-631 renal; DMS 114 small cell lung; LXFL 529 NSCLC; DLD-1 colon; HOP-18 NSCLC; DMS 273 small cell lung; MDA-N.
Assay in all cases: NCI anticancer screen, dose series, 48 h

Values joined by “and” are separate entries in the source; they are usually repeats but may differ in a detail not shown here. Equal values may be shown once.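 Values below derive from 48-hour exposures of cells grown in 96-well plates, with endpoints linearly interpolated between the two concentrations bracketing the appropriate inhibition level. GI50: concentration for 50% inhibition of growth. Definition used: TGI = concentration required for complete inhibition of growth.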

On to `N#C/C(=C\c1cc(OCc2ccccc2)c(OCc2ccccc2)cn1)C(N)=O`, for which the TGI in the assay on M19-MEL melanoma, in the assay on RXF-631 renal, with DMS 114 small cell lung, with LXFL 529 NSCLC and with DLD-1 colon was above 100 µM each time.
As for `O=C1NC2=C(CCCCC/C2=N\O)C12CCCCCC2`, the TGI in the assay with M19-MEL melanoma, in the assay on DMS 114 small cell lung, in the assay with HOP-18 NSCLC, in the assay on DMS 273 small cell lung, in the assay with LXFL 529 NSCLC and with DLD-1 colon was above 100 µM in each case.
As for `O=C1Oc2ccccc2C(=O)/C1=C1/C=C(c2ccccc2)SS1`, the TGI in the assay on MDA-N was above 100 µM.
For the molecule `C[C@]12Cc3cn[nH]c3C(=O)C1CC[C@@H]1C2CC[C@@]2(C)C1CC[C@@H]2O` (some centres not stated), the TGI with DMS 114 small cell lung, in the assay on HOP-18 NSCLC, in the assay with DMS 273 small cell lung and in the assay with LXFL 529 NSCLC was above 100 µM in each case.
For the molecule `COCC([C@@H](O)C(O)C(=O)NCC[C@@H](C)c1nc(/C=C/CC2OC3(C[C@H](O)C2C)OC(C(C[C@H](O)C(C)[C@H](O)C(C)/C=C(C)/C(C)=C/C=C/C(C)=C/C#N)OC)[C@@H](OP(=O)(O)O)C3(C)C)co1)N(C)C` (some centres not stated), the TGI in the assay on MDA-N stood at 0.000358 µM.
Molecule `O=[N+]([O-])c1ccc(Cl)c2c([N+](=O)[O-])cccc12` registered a TGI with MDA-N of 4.29 µM.
Still for that read-out and setting: the result for `Nc1ncc(Cc2ccc3c(c2)OCO3)c(N)n1` reads above 100 µM.
Turning to `O=C1/C(=C\c2ccccc2)CN(C(=O)CCN2CCCCC2)C/C1=C/c1ccccc1`, the TGI in the assay on M19-MEL melanoma amounted to 1.78 µM; with MDA-N it was 5.4 µM; in the assay on RXF-631 renal it was 4.69 µM; with DMS 114 small cell lung, 3.05 µM; in the assay with HOP-18 NSCLC, 7.37 µM; with DMS 273 small cell lung, 3.1 µM. In addition, the TGI in the assay on LXFL 529 NSCLC came to 3.05 µM; with DLD-1 colon, 3.12 µM.
Take `CCN(C)c1nc(N(C)CC)c2nc(N(C)CC)nc(N(C)CC)c2n1`: in the assay on MDA-N, the TGI is above 100 µM.
In the case of `CCc1cccc(C)c1NC(=O)CCc1nc(=S)[nH][nH]1`, the TGI with M19-MEL melanoma, in the assay on DMS 114 small cell lung, with HOP-18 NSCLC, with LXFL 529 NSCLC and with DLD-1 colon was above 100 µM in each case.
With `Cc1ccc2c(c1)CN1c3ccc(C)cc3CN2C1c1ccccc1O`, the TGI in the assay with M19-MEL melanoma, in the assay on DMS 114 small cell lung, in the assay on DMS 273 small cell lung, with LXFL 529 NSCLC and with DLD-1 colon was above 100 µM in each case.
Consider `COc1cc(CNc2nc3cc(N)cc(N)c3nc2-c2ccccc2)cc(OC)c1`, for which, in the assay on MDA-N, the GI50 is 2.33 µM and the TGI turned out to be 5.21 µM.
Consider `Cc1nc(N)nc(CCC(=O)Nc2cccc(C(F)(F)F)c2)c1-c1ccc(Cl)cc1`, for which the TGI in the assay with M19-MEL melanoma, with RXF-631 renal, with DMS 114 small cell lung, in the assay with HOP-18 NSCLC, with DMS 273 small cell lung and with LXFL 529 NSCLC was above 100 µM in each case. Moreover, in the assay on DLD-1 colon, the TGI is above 100 µM.
In the case of `COC1N(C2CC(O)C(CO)O2)C(=O)NC(=O)C1(F)Br` (configuration not stated), the TGI in the assay on MDA-N was above 100 µM; in the assay with RXF-631 renal it was 50 µM; in the assay on DMS 114 small cell lung it was 50 µM; with HOP-18 NSCLC it was above 50 µM; in the assay with DMS 273 small cell lung, 50 µM; with LXFL 529 NSCLC, 50 µM. Moreover, the TGI in the assay on DLD-1 colon worked out at 50 µM.
With `N#CC(C(=O)C(=O)Nc1c(Cl)cccc1Cl)c1ccccc1` (configuration not stated), the GI50 with M19-MEL melanoma, in the assay with RXF-631 renal, with DMS 114 small cell lung, in the assay with HOP-18 NSCLC, in the assay on DMS 273 small cell lung and in the assay on LXFL 529 NSCLC was above 100 µM each time. The GI50 in the assay with DLD-1 colon was above 100 µM. In addition, the TGI with M19-MEL melanoma, with RXF-631 renal, with DMS 114 small cell lung, in the assay on HOP-18 NSCLC, with DMS 273 small cell lung and in the assay on LXFL 529 NSCLC was above 100 µM in each case. In the assay with DLD-1 colon, the TGI is above 100 µM.
As for `CCn1c2c(c3ccccc3c1=O)C(=O)c1ccccc1-2`, in the assay on MDA-N, the TGI is above 100 µM.
For the molecule `Cc1ccc(S(=O)(=O)OCC/C(=C\[Si](C)(C)C)c2ccccc2)cc1`, the TGI in the assay with M19-MEL melanoma, with DMS 114 small cell lung, with HOP-18 NSCLC, in the assay on DMS 273 small cell lung, in the assay with LXFL 529 NSCLC and in the assay on DLD-1 colon was above 100 µM throughout.
`COc1cc([C@@H]2c3cc4c(cc3[C@@H](NC(=O)c3ccc(C#N)cc3)C3COC(=O)[C@@H]32)OCO4)cc(OC)c1O` (some centres not stated): the TGI with M19-MEL melanoma is 15.6 µM; in the assay with DMS 114 small cell lung, 2.27 µM; with HOP-18 NSCLC, above 100 µM; with DMS 273 small cell lung it was 10.3 µM; with LXFL 529 NSCLC, above 100 µM; in the assay with DLD-1 colon, 12 µM.
As to `OCc1cc2c(cn1)[nH]c1ccc(NCc3ccccc3)cc12`, the TGI in the assay with M19-MEL melanoma is 60.3 µM; with RXF-631 renal, above 100 µM; in the assay with DMS 114 small cell lung it was 51.1 µM; with DMS 273 small cell lung it was 48 µM; in the assay with LXFL 529 NSCLC, 58.8 µM; in the assay on DLD-1 colon, above 100 µM.
Turning to `COC(=O)C1C(C(=O)OC)C2C(=O)C3C(C(=O)OC)C(C(=O)OC)C3C(=O)C12` (configuration not stated), the TGI with M19-MEL melanoma, in the assay with RXF-631 renal, in the assay on HOP-18 NSCLC, in the assay with DMS 273 small cell lung and in the assay with LXFL 529 NSCLC was above 100 µM throughout.
Take `O=C1NC(=O)c2c1n(Cc1ccccc1)c(=O)n2Cc1ccccc1`: the TGI in the assay with M19-MEL melanoma, with DMS 114 small cell lung, in the assay on HOP-18 NSCLC, in the assay with DMS 273 small cell lung, in the assay with LXFL 529 NSCLC and in the assay with DLD-1 colon was above 100 µM each time.
With `O=[N+]([O-])c1ccccc1C1SCc2nc3ccccc3n21` (configuration not stated), the TGI in the assay with RXF-631 renal, in the assay with DMS 114 small cell lung, with HOP-18 NSCLC, in the assay with DMS 273 small cell lung, in the assay with LXFL 529 NSCLC and in the assay on DLD-1 colon was above 100 µM each time.
`COC(=O)C1C(=O)O[C@@H](c2ccc3c(c2)OCO3)C1C(=O)OC` (mixture of isomers): the TGI in the assay with M19-MEL melanoma, in the assay on RXF-631 renal, in the assay on DMS 114 small cell lung, in the assay on DMS 273 small cell lung, in the assay with LXFL 529 NSCLC and in the assay with DLD-1 colon was above 100 µM throughout.
As to `COc1nc2c(c(O)c(C)c(=O)n2OC2OCC(OC(C)=O)C(OC(C)=O)C2OC(C)=O)c(=O)n1C` (configuration not stated), the TGI with M19-MEL melanoma, in the assay with DMS 114 small cell lung, in the assay on DMS 273 small cell lung, in the assay with LXFL 529 NSCLC and with DLD-1 colon was above 100 µM in each case.
Turning to `NNC(=O)C(=O)N/N=C1/CCCC1C(=O)CCC(=O)Nc1ccc(Cl)cc1` (configuration not stated), the TGI in the assay on M19-MEL melanoma, with RXF-631 renal, in the assay with DMS 114 small cell lung, in the assay on HOP-18 NSCLC, in the assay with DMS 273 small cell lung and in the assay with LXFL 529 NSCLC was above 100 µM in each case. For the same molecule, in the assay with DLD-1 colon, the TGI was above 100 µM.
On to `O=c1cc(O)cc2n1CCC2`, for which the TGI in the assay on RXF-631 renal, in the assay with DMS 114 small cell lung, with DMS 273 small cell lung, in the assay on LXFL 529 NSCLC and with DLD-1 colon was above 100 µM throughout.
Regarding `O=C(NC12CC3CCC1CC(C3)C2)[C@@H]1CCCN1C(=O)OCc1ccccc1` (some centres not stated), the TGI in the assay with M19-MEL melanoma, in the assay on DMS 114 small cell lung, with HOP-18 NSCLC, with DMS 273 small cell lung, with LXFL 529 NSCLC and in the assay on DLD-1 colon was above 100 µM each time.
For `CC1=N/C(=C\c2ccc(/C=C3/N=C(C)OC3=O)cc2)C(=O)O1`, the TGI in the assay with M19-MEL melanoma, with DMS 114 small cell lung, in the assay with HOP-18 NSCLC, with DMS 273 small cell lung, in the assay on LXFL 529 NSCLC and with DLD-1 colon was above 100 µM throughout.
On to `O=C(NC1C(=O)NNC1c1cccc([N+](=O)[O-])c1)c1ccccc1` (configuration not stated), for which the TGI in the assay with M19-MEL melanoma, with RXF-631 renal, in the assay on DMS 114 small cell lung, in the assay with HOP-18 NSCLC, in the assay on LXFL 529 NSCLC and in the assay with DLD-1 colon was above 100 µM each time.
With `COC(=O)CCC(NC(=S)N/N=C/c1cccs1)C(=O)OC` (configuration not stated), the TGI in the assay on M19-MEL melanoma, in the assay with RXF-631 renal, in the assay with DMS 114 small cell lung, with HOP-18 NSCLC, in the assay with DMS 273 small cell lung and in the assay on LXFL 529 NSCLC was above 100 µM throughout. The molecule also had a TGI with DLD-1 colon above 100 µM.
As to `COc1cc(Nc2cnc3ccc(C(F)(F)F)cc3n2)cc(OC)c1OC`, the TGI in the assay with M19-MEL melanoma, with HOP-18 NSCLC, in the assay on DMS 273 small cell lung and in the assay on LXFL 529 NSCLC was above 100 µM in each case.
In the case of `O=c1/c(=C/c2ccccc2[N+](=O)[O-])sc2nnc(-c3cccnc3)n12`, the TGI with M19-MEL melanoma, in the assay with RXF-631 renal, with DMS 114 small cell lung, in the assay on HOP-18 NSCLC, with DMS 273 small cell lung and in the assay with LXFL 529 NSCLC was above 100 µM in each case. The molecule further showed a TGI with DLD-1 colon above 100 µM.
As for `CCOC(=O)c1nc(C)oc1C(F)(F)F`, the TGI with M19-MEL melanoma, with DMS 114 small cell lung, with LXFL 529 NSCLC and in the assay on DLD-1 colon was above 100 µM throughout.
As to `CC1=C(C(=O)Nc2ccccc2)C(c2ccc(N(C)C)cc2)C(C(=O)Nc2ccccc2)=C(C)N1`, the TGI in the assay on M19-MEL melanoma was above 28.9 µM; in the assay on MDA-N, above 100 µM; in the assay on DMS 114 small cell lung, 6.57 µM; with HOP-18 NSCLC, above 100 µM; with DMS 273 small cell lung it was above 31.8 µM; in the assay on LXFL 529 NSCLC, above 100 µM. In the assay on DLD-1 colon, the TGI is above 100 µM.
`Cc1cc(O)c2c(c1)C(=O)C=CC2=O`: the TGI in the assay with MDA-N is 9.13 µM and 4.68 µM.
For `CCc1ccccc1NC(=O)c1cccc([N+](=O)[O-])c1O`, the TGI is 82.4 µM in the assay with M19-MEL melanoma; above 100 µM with RXF-631 renal; 51.5 µM in the assay with DMS 114 small cell lung; above 100 µM with HOP-18 NSCLC; 86.2 µM in the assay with DMS 273 small cell lung; above 100 µM in the assay with LXFL 529 NSCLC. Also, in the assay on DLD-1 colon, the TGI was above 100 µM.
